The assay concerns the target T1, human LPAR1 (Homo sapiens, UniProt Q92633).
T1 construct: expressed in transfected cells
The assay is described as follows: Test Example 1: antagonism against response of LPA-induced increase in intracellular Ca2+ concentration in RH7777 cells stably expressing human LPAR1. Conditions: RH7777 cells stably expressing human LPAR1; Fluo-4 fluorescence, FDSS6000; read-out: IC50 value (concentration producing 50% antagonism against response of LPA-induced increase in intracellular Ca2+ concentration) (converted). The format is cell-based. The method, boiled down:
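Ca2+ flux read at 540 nm emission (480 nm excitation) after LPA addition to human LPAR1-expressing RH7777 cells exposed to compound for 30 min, 37 °C, pH 7.4 HEPES-buffered HBSS. Response relative to no-compound control after basal subtraction; IC50 fitted from concentration–response.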

55 compounds from US12338203B2 (TAISHO PHARMACEUTICAL CO., LTD., priority 2019, dated 2025) can be followed below.

T1 sequence (Q92633 whole entry): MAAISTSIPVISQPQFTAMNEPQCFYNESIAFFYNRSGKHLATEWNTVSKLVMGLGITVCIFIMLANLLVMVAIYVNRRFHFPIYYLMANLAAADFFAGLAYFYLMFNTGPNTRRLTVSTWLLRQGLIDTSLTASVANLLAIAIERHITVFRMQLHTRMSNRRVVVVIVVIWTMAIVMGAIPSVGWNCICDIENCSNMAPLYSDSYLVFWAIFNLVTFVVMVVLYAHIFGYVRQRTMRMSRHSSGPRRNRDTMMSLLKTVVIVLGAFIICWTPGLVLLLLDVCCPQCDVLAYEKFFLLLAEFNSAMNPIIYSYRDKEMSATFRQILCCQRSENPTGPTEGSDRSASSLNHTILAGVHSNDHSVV

Consider `CCOc1cc([C@@H](C)N(CCO[C@@H](C)c2ccccc2)C(=O)NC2(C(=O)O)CCOCC2)cc(OCC)c1C(C)=O` [Example 4-142], for which the IC50 is 5.9 nM.
For `CCOc1cc(C(C)N(CCOCc2ccccc2)C(=O)NC2(C(=O)O)CC(OC)C2)cc(OCC)c1C1CC1` (stereo not shown) [Example 5-204], the IC50 was 0.882 nM.
The figure for `CCOc1cc([C@@H](C)N(CCC(F)(F)Cc2ccccc2)C(=O)NC2(C(=O)O)CCOCC2)c(Cl)c(OCC)c1C(C)=O` [Example 5-43] is 22.1 nM; for `CCOc1c(C(C)=O)ccc([C@@H](C)N(CCCCc2ccccc2)C(=O)NC2(C(=O)O)CC(F)(F)C2)c1C` [Example 1-75] it is 1.24 nM.
In the case of `CCOc1cc(C(C)N(CCOC(C)c2ccccc2)C(=O)NC2(C(=O)O)CC(OC)C2)c(Cl)c(OCC)c1C1CC1` (stereo not shown) [Example 5-207], the IC50 was 1.36 nM.
On to `CCOc1cc(C(C)N(CCCCc2ccccc2)C(=O)NC2(C(=O)O)CC(F)(F)C2)cc(OCC)c1C(C)C` (stereo not shown) [Example 1-49], for which the IC50 is 5.21 nM.
Consider `CCOc1cc(C(C)N(CCCCc2ccccc2)C(=O)NC2(C(=O)O)CC(F)(F)C2)cc(OCC)c1C(=O)C(F)(F)F` (stereo not shown) [Example 1-59], for which the IC50 was 14.9 nM.
Under `CCOc1cc(C(C)N(CCCCc2ccccc2)C(=O)NC2CC(CC(=O)O)C2)cc(OCC)c1C` (stereo not shown) [Example 1-148] stands 25.5 nM.
Take `CCOc1cc(C(C)N(CCCCc2ccccc2)C(=O)NC2(P(=O)(O)O)CCCC2)cc(OCC)c1C` (single isomer, unassigned) [Example 8-2]: the IC50 was 20 nM.
For the compound `CCOc1cc([C@@H](C)N(CCCC(F)(F)c2ccccc2)C(=O)NC2(C(=O)O)CC(F)(F)C2)cc(OCC)c1C` [Example 4-58], the IC50 is 1.15 nM.
The figure for `CCOc1cc([C@@H](C)N(CCO[C@@H](C)c2ccccc2)C(=O)N[C@]2(C(=O)O)C[C@@H](OCC)C2)c(C)c(OCC)c1C` [Example 5-82, trans-1-[([(1R)-1-(3,5-diethoxy-2,4-dimethylphenyl)ethyl]{2-[(1S)-1-phenylethoxy]ethyl}carbamoyl)amino]-3-ethoxycyclobutane-1-carboxylic acid] is 1.75 nM.
Regarding `CCOc1cc([C@@H](C)N(CCCC(F)(F)c2ccccc2)C(=O)NC2(C(=O)O)CCC2)cc(OCC)c1C(C)=O` [Example 4-50], the IC50 was 1.21 nM.
For `CCOc1cc(C(C)N(CCCCc2ccccc2)C(=O)NC2(C(=O)O)CC(F)(F)C2)cc(OCC)c1C1(O)CC1` (stereo not shown) [Example 1-38], the IC50 is 5.4 nM.
Consider `COc1cc([C@@H](C)N(CCCCc2ccccc2)C(=O)NC2(C(=O)O)CCCC2)cc(OC)c1C` [Example 1-117], for which the IC50 was 16.8 nM.
Consider `CCOc1cc([C@@H](C)N(CCCCc2ccccc2)C(=O)NC2(CC(=O)O)CCOCC2)cc(OCC)c1C(C)=O` [Example 1-166], for which the IC50 is 11 nM.
Take `CCOc1cc([C@@H](C)N(CCO[C@H](C)c2ccccc2)C(=O)NC2(C(=O)O)CC(F)(F)C2)cc(OCC)c1C(C)=O` [Example 4-149]: the IC50 is 3.4 nM.
The figure for `CCOc1cc(C(C)N(CCOCc2ccccc2)C(=O)NC2(C(=O)O)CC2)c(C)c(OCC)c1C(C)=O` (stereo not shown) [Example 5-186] is 2.63 nM; for `CCOC1CC(NC(=O)N(CCOC(C)c2ccccc2)C(C)c2cc(OC)c(C)c(OC)c2C)(C(=O)O)C1` (stereo not shown) [Example 5-170] it is 6.25 nM.
`CCOc1cc([C@@H](C)N(CCC(F)(F)Cc2ccccc2)C(=O)NC2CC(C(=O)O)C2)cc(OCC)c1C1CC1` (stereo partly shown) [Example 4-83]: the IC50 was 80.8 nM.
Regarding `CCOc1cc([C@@H](C)N(CCOCc2ccccc2)C(=O)NC2(C(=O)O)CC(F)(F)C2)c(Cl)c(OCC)c1C(C)O` (single isomer, unassigned) [Example 5-56], the IC50 was 1.04 nM.
For the compound `CC(c1cc(Cl)cc(Cl)c1)N(CCCCc1ccccc1)C(=O)NC1(C(=O)O)CC(F)(F)C1` (stereo not shown) [Example 5-21], the IC50 is 17.1 nM.
`CCOc1cc([C@@H](C)N(CCOCc2ccccc2)C(=O)NC2(C(=O)O)CC(OC)C2)cc(OCC)c1C(C)=O` (stereo partly shown) [Example 4-107]: the IC50 was 4.08 nM.
Take `CCOc1cc([C@@H](C)N(CCCCc2ccccc2)C(=O)NC2(C(=O)O)CC2)cc(OCC)c1C1CC1` [Example 1-18]: the IC50 was 1.09 nM.
Take `CCOc1cc(C(C)N(CCCCc2ccccc2)C(=O)NC2(C(=O)O)CC(F)(F)C2)cc(O)c1C(C)=O` (stereo not shown) [Example 1-62, 1-({[1-(4-Acetyl-3-Ethoxy-5-Hydroxyphenyl)Ethyl](4-Phenylbutyl) Carbamoyl}Amino)-3,3-Difluorocyclobutane-1-Carboxylic Acid]: the IC50 was 6.76 nM.
The figure for `COc1cc(C(C)N(CCOCc2ccccc2)C(=O)NC2(C(=O)O)CC2)c(Cl)c(OC)c1C1CC1` (stereo not shown) [Example 5-129] is 38.4 nM; for `CCOc1cc([C@@H](C)N(CCC2Cc3ccccc3C2)C(=O)NC2(C(=O)O)CC(OC)C2)cc(OCC)c1C(C)=O` (stereo partly shown) [Example 4-22] it is 7.62 nM; for `CCOc1cc([C@@H](C)N(CCCC(F)(F)c2ccccc2)C(=O)NC2(C(=O)O)CCOCC2)cc(OCC)c1C1CC1` [Example 4-75] it is 0.992 nM.
The figure for `CCOc1cc(C(C)N(CCOCc2ccccc2)C(=O)NC2(C(=O)O)CCOCC2)c(C)c(OCC)c1C1CC1` (stereo not shown) [Example 5-227] is 0.851 nM; for `CCOc1cc([C@@H](C)N(CCCCc2ccccc2C)C(=O)NC2(C(=O)O)CC(F)(F)C2)cc(OCC)c1C` [Example 4-15] it is 32.7 nM.
Turning to `CCOc1cc([C@@H](C)N(CCCCc2ccccc2)C(=O)NC(C)(C)C(=O)O)cc(OCC)c1C(C)=O` [Example 1-1, N-{[(1R)-1-(4-Acetyl-3,5-Diethoxyphenyl)Ethyl](4-Phenylbutyl) Carbamoyl}-2-Methylalanine], the IC50 is 3.17 nM.
For `CCOc1cc(C(C)N(CCCCc2ccccc2)C(=O)NC2(C(=O)O)CC(F)(F)C2)cc2c1CCO2` (stereo not shown) [Example 5-92], the IC50 was 23.1 nM.
`CCOc1cc([C@@H](C)N(CCO[C@@H](C)c2ccccc2)C(=O)N[C@]2(C(=O)O)C[C@H](OC)C2)cc(OCC)c1C(C)=O` [Example 4-122]: the IC50 was 4.53 nM.
The figure for `CCOc1cc(C(C)N(CCCCc2ccccc2)C(=O)NC(CCc2ccccc2)C(=O)O)cc(OCC)c1C` (stereo not shown) [Example 1-9] is 129 nM; for `CCOc1c(C(C)=O)ccc([C@@H](C)N(CCCC(F)(F)c2ccccc2)C(=O)NC2(C(=O)O)CC(F)(F)C2)c1C` [Example 4-60] it is 2.9 nM; for `CCOc1cc(C(C)N(CCO[C@@H](C)c2ccccc2)C(=O)NC2(C(=O)OC(C)(C)C)CC(F)(F)C2)c(Cl)c(OCC)c1C(C)=O` (stereo partly shown) [Example 6-17] it is 10200 nM.
In the case of `CCOc1cc([C@@H](C)N(CCCCc2ccccc2)C(=O)NC2(C(=O)O)CCS(=O)(=O)CC2)cc(OCC)c1C` [Example 1-157], the IC50 is 3.24 nM.
In the case of `CCOc1cc(C(C)N(CCCCc2ccccc2)C(=O)NC2(c3nn[nH]n3)CCC2)cc(OCC)c1C(C)=O` (stereo not shown) [Example 10-6], the IC50 is 1.88 nM.
For `CCOc1cc([C@@H](C)N(CCOCc2ccccc2)C(=O)NC2CC(C(=O)O)C2)c(Cl)c(OCC)c1C(C)=O` (stereo partly shown) [Example 5-37], the IC50 is 292 nM.
As to `C=Cc1c(OCC)cc(C(C)N(CCCCc2ccccc2)C(=O)NC2(C(=O)O)CC(F)(F)C2)cc1OCC` (stereo not shown) [Example 1-53], the IC50 was 3 nM.
As to `CCOc1cc(C(C)N(CCOC(C)c2ccccc2)C(=O)NC2(C(=O)O)CCC2)c(C)c(OCC)c1C` (stereo not shown) [Example 5-194], the IC50 is 2.15 nM.
For `CCOc1cc(C(C)N(CCOC(C)c2ccccc2)C(=O)NC2(C(=O)O)CC2)c(Cl)c(OCC)c1C(C)=O` (stereo not shown) [Example 5-187], the IC50 was 4.16 nM.
Under `CCOc1c(C2CC2)ccc([C@@H](C)N(CCO[C@H](C)c2ccccc2)C(=O)NC2(C(=O)O)CCC2)c1C` [Example 4-171] stands 3.38 nM; under `CCOc1cc([C@@H](C)N(CCCCc2ccccc2)C(=O)NCC2(C(=O)O)CCOCC2)cc(OCC)c1C(C)=O` [Example 1-165], 64.8 nM; under `CCOc1c(C(C)O)ccc([C@@H](C)N(CCCCc2ccccc2)C(=O)NC2(C(=O)O)CC(F)(F)C2)c1C` (single isomer, unassigned) [Example 1-79], 7.86 nM.
With `O=C(NC1(C(=O)O)CCCC1)N(CCCCc1ccccc1)Cc1cccc(Cl)c1` [Example 5-2], the IC50 was 4520 nM.
In the case of `CCOc1cc(C(C)N(CCOCc2ccccc2)C(=O)NC2(C(=O)O)CC(OCC)C2)c(Cl)c(OCC)c1C1CC1` (stereo not shown) [Example 5-213], the IC50 is 0.847 nM.
As for `COc1cc(C(C)N(CCOCc2ccccc2)C(=O)NC2(C(=O)O)CC(OC)C2)c(C)c(OC)c1C(C)=O` (stereo not shown) [Example 5-154], the IC50 was 4.3 nM.
Consider `CCOc1cc([C@@H](C)N(CCCCc2ccccc2)C(=O)NCC2(C(=O)O)CC2)cc(OCC)c1C(C)=O` [Example 1-144], for which the IC50 is 28.7 nM.
In the case of `CCOc1cc([C@@H](C)N(CCO[C@@H](C)c2ccccc2)C(=O)NC2(C(=O)O)CC(F)(F)C2)c(Cl)c(OCC)c1C(C)=O` [Example 5-32], the IC50 was 2.04 nM.
As for `CCOc1cc(C(C)N(CCOC(C)c2ccccc2)C(=O)NC2(C(=O)O)CC(OC)C2)c(Cl)c(OCC)c1C(C)=O` (stereo not shown) [Example 5-208], the IC50 was 3.5 nM.
In the case of `COc1cc(C(C)N(CCO[C@@H](C)c2ccccc2)C(=O)NC2(C(=O)O)CC(F)(F)C2)cc(OC)c1C1CC1` (stereo partly shown) [Example 5-148], the IC50 is 3.4 nM.
On to `CCOc1c(C(C)=O)ccc([C@@H](C)N(CCCC(F)(F)c2ccccc2)C(=O)N[C@]2(C(=O)O)C[C@H](OC)C2)c1C` [Example 4-68], for which the IC50 was 8.85 nM.
Regarding `CCOc1cc([C@@H](C)N(CCCCc2cccnc2)C(=O)NC2(C(=O)O)CC(F)(F)C2)cc(OCC)c1C` [Example 4-29], the IC50 is 17.6 nM.
`CCOc1c(C(C)=O)ccc([C@@H](C)N(CCO[C@H](C)c2ccccc2)C(=O)NC2(C(=O)O)CC2)c1C` [Example 4-147]: the IC50 is 11.6 nM.
Take `CCOc1cc([C@@H](C)N(CCO[C@@H](C)c2ccccc2)C(=O)NC2(C(=O)O)CCC2)cc(OCC)c1C(C)=O` [Example 4-114]: the IC50 is 2.54 nM.
